For twelve compounds, Kb and melting point results are on record in US10556870B2, “Imidazole compounds as EAAT3 inhibitors” (Hoffmann-La Roche Inc., priority 2016, dated 2020).

The target of one data set is T1, human EAAT3 (Homo sapiens, UniProt P43005).
T1 construct: expressed in transfected cells
T1 sequence (P43005 1-524): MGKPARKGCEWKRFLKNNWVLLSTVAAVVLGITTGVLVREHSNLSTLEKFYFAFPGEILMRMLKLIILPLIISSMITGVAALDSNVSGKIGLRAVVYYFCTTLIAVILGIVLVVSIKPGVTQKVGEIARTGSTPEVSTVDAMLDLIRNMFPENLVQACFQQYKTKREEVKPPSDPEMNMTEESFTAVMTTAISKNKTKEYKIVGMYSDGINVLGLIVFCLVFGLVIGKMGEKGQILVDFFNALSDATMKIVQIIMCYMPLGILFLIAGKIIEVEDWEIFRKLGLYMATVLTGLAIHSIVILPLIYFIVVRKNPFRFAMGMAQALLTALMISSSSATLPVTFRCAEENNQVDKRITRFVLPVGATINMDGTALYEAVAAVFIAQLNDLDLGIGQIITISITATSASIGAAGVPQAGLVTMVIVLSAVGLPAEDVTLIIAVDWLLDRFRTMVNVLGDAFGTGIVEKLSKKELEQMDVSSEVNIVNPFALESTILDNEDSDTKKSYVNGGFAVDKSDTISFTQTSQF
Briefly: FLIPR Membrane Potential (FMP) assay, antagonist potency at human EAAT3 with L-glutamate as agonist. The class given is cell-based. The note with it: HEK-293 cells stably expressing human EAAT3; L-glutamate at 80% of maximum response; antagonist applied 15 min before agonist; Kb by Cheng-Prusoff equation. The protocol: The FLIPR Membrane Potential (FMP) Assay
HEK-293 cells stably expressing human EAAT3 were seeded at 55 000 cells/well in growth medium (DMEM glutamate free (Invitrogen 11960-044), 1% Pen Strep (10 ml/l GIBCO BRL No 15140-023), 10% FCS non dialysed heat inactivated, 5 mg/l puromycin) in poly-D-lysine treated 96-well black microtiter plates with clear-bottom. After 24 h, the growth medium was removed and 100 μl/well of Krebs buffer (140 mM NaCl, 4.7 mM KCl, 2.5 mM CaCl2, 1.2 mM MgCl2, 11 mM HEPES, 10 mM D-glucose, pH=7.4) added. The cells were then loaded by adding 100 μl/well FMP assay dye (FLIPR Membrane Potential assay reagent, Molecular Devices). The 96-well plates were then incubated at 37° C. for 1 h. The depolarization of the cells will cause more dye to enter in the cells, where it will bind to intracellular proteins and lipids and cause an increase in the fluorescence signal. Antagonist potency at human EAAT3 was determined by using L-glutamate as agonist at a concentration which gives 80% of the maximum response. The antagonists were applied 15 min before the application of the agonist L-glutamate. The assays were performed at room temperature and measurements done by using a Fluorometric Imaging Plate Reader (FLIPR, Molecular Devices) and filter #2. Responses were measured as peak increase in fluorescence minus basal (i.e. fluorescence without addition of L-glutamate). Kb was determined using the Cheng-Prusoff equation Kb=IC50/[1+(A/EC50)], where IC50 is the concentration of the antagonist producing 50% inhibition, A is the concentration of the agonist against which the IC50 is being determined (at EC50) and EC50 is the concentration of the agonist producing […].

The structures appear in SMILES notation.

A word on the Kb: it is the affinity of an antagonist, worked out from how it opposes an agonist. As a reminder, the melting point is the temperature of the solid-liquid transition. The compound `CC(C)n1cncc1-c1cc(C(=O)NC(C)(C)C)cc(-c2ccc(F)cc2)c1` [Example 1, N-tert-Butyl-3-(4-fluorophenyl)-5-(3-propan-2-yl-imidazol-4-yl)-benzamide] returned a melting point of 85 °C. This compound also returned a Kb at human EAAT3 of 0.16 µM.

The compound `CC(C)n1cncc1-c1cc(C(=O)NC(C)(C)C)cc(-c2ccc(C(F)(F)F)cc2)c1` [Example 2, N-tert-Butyl-3-(3-propan-2-yl-imidazol-4-yl)-5-[4-(trifluoromethyl)-phenyl]-benzamide] yielded a melting point of 88 °C. For the same compound, the Kb at human EAAT3 is 0.27 µM.

In turn, `CC(C)n1cncc1-c1cc(C(=O)NC(C)(C)C)cc(-c2ccc(Cl)cc2)c1` [Example 3, N-tert-Butyl-3-(4-chlorophenyl)-5-(3-propan-2-yl-imidazol-4-yl)-benzamide] displayed a melting point of 97.5 °C. Besides, at human EAAT3, the Kb is 0.14 µM.

Consider `Cn1cncc1-c1cc(C(=O)NC(C)(C)C)cc(-c2ccc(Cl)cc2)c1` [Example 4, N-tert-Butyl-3-(4-chlorophenyl)-5-(3-methyl-imidazol-4-yl)-benzamide], for which the melting point was 79.5 °C. The same compound displayed a Kb at human EAAT3 of 0.29 µM.

Compound `Cn1cncc1-c1cc(C(=O)NC(C)(C)C)cc(-c2ccc(C(F)(F)F)cc2)c1` [Example 5, N-tert-Butyl-3-(3-methyl-imidazol-4-yl)-5-[4-(trifluoromethyl)-phenyl]-benzamide] came in with a melting point of 78.5 °C. On human EAAT3, this compound registered an antagonist equilibrium constant (Kb) of 0.36 µM.

In turn, `Cn1cncc1-c1cc(C(=O)NC(C)(C)C)cc(-c2ccc(F)cc2)c1` [Example 6, N-tert-Butyl-3-(4-fluorophenyl)-5-(3-methyl-imidazol-4-yl)-benzamide] had a melting point of 62 °C. The compound also gave a Kb at human EAAT3 of 0.27 µM.

As for `CC(C)(C)NC(=O)c1cc(-c2ccc(Cl)cc2)cc(-c2cncn2C(C)(C)C)c1` [Example 7, N-tert-Butyl-3-(3-tert-butyl-imidazol-4-yl)-5-(4-chlorophenyl)-benzamide], the melting point came out at 92 °C. The compound further registered a Kb at human EAAT3 of 0.2 µM.

In turn, `CCn1cncc1-c1cc(C(=O)NC(C)(C)C)cc(-c2ccc(Cl)cc2)c1` [Example 8, N-tert-Butyl-3-(4-chlorophenyl)-5-(3-ethyl-imidazol-4-yl)-benzamide] displayed a melting point of 89 °C. Besides, the Kb at human EAAT3 was found to be 0.19 µM.

Consider `CCn1cncc1-c1cc(C(=O)NC(C)(C)C)cc(-c2ccc(F)cc2)c1` [Example 9, N-tert-Butyl-3-(3-ethyl-imidazol-4-yl)-5-(4-fluorophenyl)-benzamide], for which the melting point stood at 79 °C. This compound also returned a Kb at human EAAT3 of 0.16 µM.

As to `CCn1cncc1-c1cc(C(=O)NC(C)(C)C)cc(-c2ccc(C(F)(F)F)cc2)c1` [Example 10, N-tert-Butyl-3-(3-ethyl-imidazol-4-yl)-5-[4-(trifluoromethyl)-phenyl]-benzamide], the melting point amounted to 87 °C. On human EAAT3, this compound gave a Kb of 0.23 µM.

Compound `CC(C)(C)NC(=O)c1cc(-c2ccc(F)cc2)cc(-c2cncn2C(C)(C)C)c1` [Example 11, N-tert-Butyl-3-(3-tert-butyl-imidazol-4-yl)-5-(4-fluorophenyl)-benzamide] had a melting point of 96 °C. This compound had an antagonist dissociation constant (Kb) on human EAAT3 of 0.21 µM.

`CC(C)(C)NC(=O)c1cc(-c2ccc(C(F)(F)F)cc2)cc(-c2cncn2C(C)(C)C)c1` [Example 12, N-tert-Butyl-3-(3-tert-butyl-imidazol-4-yl)-5-[4-(trifluoromethyl)-phenyl]-benzamide]: the melting point was 87 °C. This compound gave a Kb on human EAAT3 of 0.27 µM.
